Experimental data from patent US8406870B2, “Treating cancer using electromagnetic fields in combination with other treatment regimens” (priority 2006, dated 2013).
Read-outs that look alike come from different tables or passages of the source.

Legend:
[1] = test system: human breast cancer (MDA-231) cells; test: XTT cell proliferation assay, first set of experiments; assay type: cell-based; settings: 24 h
Protocol: (§1) The MDA-231 and B16F10 cells were obtained from ATCC (USA). […] The experiments were performed in 35 mm Petri dishes (NUNC, USA). Cisplatin and Taxol were obtained from Sigma (USA). A cell proliferation assay kit was obtained from Biological Industries Ltd., Israel. […] XTT is cleaved to formazan (absorbs at 450-500 nm) by the “succinate-tetrazolium reductase” system of the respiratory chain of the mitochondria and is active only in viable cells. Therefore, the amount of formazan dye (A450 nm) formed directly correlates to the number of metabolically active cells in culture. The XTT assay is widely used for the measurement of cell proliferation in response to growth factors, cytokines, mitogens, nutrients, anti-cancer drugs and physiological mediators.) The media in the Petri dish was replaced by fresh media (3 ml with or without Taxol or Cisplatin), thermo-couples were placed at the center, and the dish cover was replaced by one with attached electrodes. Cell samples without […] treatment were placed in CO2 incubator at 37° C. for 24 hours, while […] treated samples were placed in CO2 incubator at 25° C., also for 24 hours. Final incubation temperature of […] treated samples was 37±0.7° C. due to heating induced by TTFields (as measured by inserted thermo-couples). […] The rate of cell proliferation was calculated as a ratio of the final cell number to the initial cell number (OD1/OD0). […] For those samples that were subjected to TTFields, two-directional 200 kHz sinusoidal TTFields were generated by an appropriate waveform generator and an amplifier. The output of the amplifier was switched between two pairs of outputs every 250 mSec, with the outputs connected to two pairs of electrodes, insulated by a high dielectric constant ceramic (e.g., PMN-PT, EDO Corporation, Utah), positioned in the Petri dish as depicted in FIG. 1. Field intensity in the medium surrounding the cells was measured to be approximately 7 V/cm.

[2] = test system: mouse melanoma (B16F10) cells; test: as above; assay type: cell-based; settings: 24 h
Protocol: as §1

[3] = test system: MDA-MB-231 cells
[4] = test system: human non-small cell lung cancer (H1299) cells; assay type: cell-based

N.N.[Cl][Pt][Cl] [Cisplatin, cis-diamminedichloroplatinum(II)]
cell proliferation under combined treatment ([1]; Cisplatin 15 μM + TTFields 200 kHz approx. 7 V/cm): complete cell proliferation arrest | reduced cell proliferation as compared with the control ([1]; Cisplatin 15 μM alone): 63% | cell proliferation, drug alone compared with drug + TTFields ([2]; Cisplatin 15 μM): reduced cell proliferation to a lesser extent

O=P1(N(CCCl)CCCl)NCCCO1 (centres unmarked) [Cyclophosphamide]
effectiveness of combined treatment ([3]; 30 mM Cyclophosphamide + 1.75 V/cm TTFields applied for 1 hour): not effective | effectiveness of combined treatment ([3]; 30 mM Cyclophosphamide + 1.75 V/cm TTFields applied for 6 hours or more): fully effective

CC(=O)O[C@H]1C(=O)[C@@]2(C)[C@H]([C@H](OC(=O)c3ccccc3)[C@]3(O)C[C@H](OC(=O)[C@H](O)[C@@H](NC(=O)c4ccccc4)c4ccccc4)C(C)=C1C3(C)C)[C@]1(OC(C)=O)CO[C@@H]1C[C@@H]2O [Paclitaxel]
cells died under the influence of the combined treatment ([1]; Taxol 0.05 μM + TTFields 200 kHz approx. 7 V/cm): about 40% | reduced cell proliferation as compared with the control ([1]; Taxol 0.05 μM alone): 70% | cell proliferation, drug alone compared with drug + TTFields ([2]; Taxol 0.05 μM): reduced cell proliferation to a lesser extent | Combination index CI40 ([4]; Paclitaxel + TTFields 1.25 V/cm): 0.73 | effect on cell proliferation rate, combination versus drug alone ([4]; Paclitaxel + TTFields 1.25 V/cm and 1.75 V/cm, all concentrations studied): significant additional decrease in cell proliferation rate | Combination index CI40 ([4]; Paclitaxel + TTFields 1.75 V/cm): 0.98 | induction of cell death ([4]; Paclitaxel alone at concentrations up to 500 nM): not observed | cell proliferation rate (% of control) ([4]; Paclitaxel alone, concentrations above 200 nM, 24 h): 55% | induction of cell death ([4]; higher concentrations of Paclitaxel in combination with TTFields): cell death is induced
